Data from patent US20200071310A1, “N-ARYL PYRAZOLES AS NRF2 REGULATORS” (GLAXOSMITHKLINE INTELLECTUAL PROPERTY DEVELOPMENT LIMITED, priority 2016, published 2020).

Experiments:
[1] = system: NQO1 specific enzyme activity in BEAS-2B cells; experiment: BEAS-2B NQO1 MTT Assay; type: cell-based; settings: Homo sapiens; NQO1 specific activity induction, BEAS-2B cells, 48 hours; read-out: EC50
Excerpt: NAD(P)H:quinone oxidoreductase 1 (NQO1), also called DT diaphorase, is a homodimeric FAD-containing enzyme that catalyzes obligatory NAD(P)H-dependent two-electron reductions of quinones and protects cells against the toxic and neoplastic effects of free radicals and reactive oxygen species arising from one-electron reductions. The transcription of NQO1 is finely regulated by NRF2, and thus NQO1 activity is a good marker for NRF2 activation. On day one, frozen BEAS-2B cells (ATCC) were thawed in a water bath, counted, and re-suspended at a concentration of 250,000 cells/mL. Fifty microliters of cells were plated in 384 well black clear-bottomed plates. Plates were incubated at 37° C., 5% CO2 overnight. On day two, plates were centrifuged and 50 nL of compound or controls were added to the cells. Plates were then incubated at 37° C., 5% CO2 for 48 hours. On day four, medium was aspirated from the plate and crude cell lysates were made by adding 13 uL of 1× Cell Signaling Technologies lysis buffer with 1 Complete, Mini, EDTA-free Protease Inhibitor Tablet (Roche) for each 10 mL of lysis buffer. After lysis plates were incubated for 20 minutes at room temperature. Two microliters of lysate were removed for use in Cell Titer Glo assay (Promega) and MTT cocktail was prepared (Prochaska et. al. 1998) for measurement of NQO1 activity. Fifty microliters of MTT cocktail is added to each well, plate is centrifuged, and analyzed on an Envision plate reader (Perkin Elmer) using Absorbance 570 nm label for 30 minutes. Product formation was measured kinetically and the pEC50 of NQO1 specific activity induction was calculated by plotting the change in absorbance (Delta OD/min) versus the log of compound concentration followed by 3-parameter fitting. pEC50 is the negative log of the EC50.

[2] = target: T1, full length Keap1 protein / full length NRF2 protein (Homo sapiens, UniProt Q14145); experiment: NRF2-Keap1 TR-FRET Low Protein Assay; type: binding
T1 construct: full length NRF2 protein and full length Keap1 protein (Keap1 exists a dimer) are used; His
T1 sequence (Q14145 whole entry): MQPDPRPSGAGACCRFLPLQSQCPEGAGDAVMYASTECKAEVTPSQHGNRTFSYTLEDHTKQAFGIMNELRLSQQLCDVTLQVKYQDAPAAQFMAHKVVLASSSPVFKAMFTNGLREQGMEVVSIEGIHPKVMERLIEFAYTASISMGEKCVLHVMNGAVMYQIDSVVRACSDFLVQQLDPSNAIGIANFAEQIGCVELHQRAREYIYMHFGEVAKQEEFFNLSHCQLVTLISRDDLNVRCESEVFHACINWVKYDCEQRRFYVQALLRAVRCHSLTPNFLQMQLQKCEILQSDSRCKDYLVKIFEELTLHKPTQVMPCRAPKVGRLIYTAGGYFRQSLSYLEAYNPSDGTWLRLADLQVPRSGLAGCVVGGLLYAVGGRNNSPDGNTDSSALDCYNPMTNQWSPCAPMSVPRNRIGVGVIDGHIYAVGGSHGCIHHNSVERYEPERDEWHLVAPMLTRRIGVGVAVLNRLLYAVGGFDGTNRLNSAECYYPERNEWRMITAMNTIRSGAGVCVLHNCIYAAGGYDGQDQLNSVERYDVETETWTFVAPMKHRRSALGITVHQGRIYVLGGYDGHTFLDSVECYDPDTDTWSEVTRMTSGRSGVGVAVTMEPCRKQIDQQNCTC
Excerpt: In the NRF2-Keap1 TR-FRET (time-resolved fluorescence resonance energy transfer) low protein assay, full length NRF2 protein and full length Keap1 protein (Keap1 exists a dimer) are used. The assay detects a compound's ability to displace the binding of Keap1 FlagHis with biotinylated Avi-NRF2 protein. Biotin-NRF2 binds to streptavidin-europium (a component of the detection mix) and Keap1 FlagHis is recognized by anti-Flag APC (allophycocyanin) antibody (also a component of the detection mix). If binding occurs between the two proteins, there will be an energy transfer from the Eu+3 (donor) at 615 nm to the APC (acceptor) at 665 nm. A potential NRF2 inhibitor will cause a reduction in the TR-FRET signal by interfering with the binding of Keap1 to NRF2.
Ten nanoliters of 100× compound dose response curves (serial 3-fold dilutions) in DMSO were stamped using an Echo liquid handling system (Labcyte) into 384-well, low volume, black assay plates (Greiner, #784076), with DMSO in columns 6 and 18. An additional 90 nl DMSO was added to each well, to bring the total volume to 100 nl per well. The top concentration of compound was located in columns 1 and 13, with the serial dilutions going across the row. All reagents were diluted in assay buffer (50 mM Tris, pH 8.0, 5 mM MgCl2, 100 mM NaCl, 0.005% BSA, 1 mM DTT, and 2 mM CHAPS. The BSA, DTT, and CHAPS were added to the assay buffer on the day of assay. Using a Multidrop Combi (Thermo Electron Corporation) equipped with a metal tip dispenser, 5 ul of 1.25 nM Keap1 FlagHis protein was added to all wells of the compound plate, with the exception of the wells in column 18. Wells in column 18 received 5 ul of assay buffer instead. Plates were centrifuged at 500 rpm for 1 minute, covered with a plate lid, and incubated at 37° C. for 2.25 hours. Plates were then removed from the incubator and allowed to cool to RT for 15 minutes. Five microliters of 2.5 nM biotin-NRF2 protein was then added to all wells of the plates and the plates were spun at 500 rpm for 1 minute, followed by incubating at 4° C. for 1.25 hours. The plates were then allowed to warm to RT for 15 minutes, followed by the addition of 10 ul of detection mix (1 nM Streptavidin Eu+W1024 and 5 ug/ml mouse anti-DYKDDDDK IgG conjugated to SureLight APC antibody; both from Columbia Biosciences) to all wells. Plates were spun at 500 rpm for 1 minute, incubated for 1 hour at RT, and read on an Envision plate reader using a 320 nm excitation filter and 615 nm and 665 nm emission filters. Compound response (% inhibition) and potency (pIC50) were calculated based on the ratio of the two emissions (665 nm/615 nm) and then the transformed data was normalized against controls in the assay (control 1=1% DMSO in the presence of NRF2 and Keap1 protein and control 2=1% DMSO in the presence of only the NRF2 protein). Data analysis was handled using the software package Abase XE (Surrey, United Kingdom). The % inhibition values were calculated from the ratio (transformed) data by the equation:
100−(100*(compound response−average control 2)/(average control 1−average control2)).
For calculation of pIC50s, Abase XE used a four parameter equation.
IC50s<10 nM (+++++), IC50s 10-100 nM (++++), IC50s 100 nM-1 uM (+++), IC50s 1-10 uM (++). and IC50s 10 uM-100 uM (+), IC50s>100 uM (−), or were not determined (ND).

Row | Structure (SMILES) | EC50 [2] | EC50 [1]
1 | CN(Cc1cccc(-n2ncc(C(=O)O)c2[C@@H]2C[C@H]2c2cn(C)nn2)c1)S(=O)(=O)c1cccc(Oc2ccccc2)c1 (racemic) [Example 35, 5-((trans)-2-(1-methyl-1H-1,2,3-triazol-4-yl)cyclo-propyl)-1-(3-((N-methyl-3-phenoxy-phenyl-sulfonamido)-methyl)phenyl)-1H-pyrazole-4-carboxylic acid] | 100 to 1000 nM | 1000 to 10000 nM
2 | CCCCCCN(Cc1cccc(-n2ncc(C(=O)O)c2[C@@H]2C[C@H]2c2cn(C)nn2)c1)S(=O)(=O)c1ccccc1C (racemic) [Example 37, 1-(3-((N-hexyl-2-methylphenylsulfonamido)methyl)phenyl)-5-((trans)-2-(1-methyl-1H-1,2,3-triazol-4-yl)cyclo-propyl)-1H-pyrazole-4-carboxylic acid] | 100 to 1000 nM | 10 to 100 nM
3 | COc1ccc(Cl)cc1S(=O)(=O)N(C)Cc1cccc(-n2ncc(C(=O)O)c2[C@@H]2C[C@H]2c2cn(C)nn2)c1 (racemic) [Example 40, 1-(3-((5-chloro-2-methoxy-N-methylphenyl-sulfonamido)-methyl)phenyl)-5-((trans)-2-(1-methyl-1H-1,2,3-triazol-4-yl)cyclo-propyl)-1H-pyrazole-4-carboxylic acid] | 1000 to 10000 nM | 1000 to 10000 nM
4 | CN(Cc1cccc(-n2ncc(C(=O)O)c2[C@@H]2C[C@H]2c2cn(C)nn2)c1)S(=O)(=O)c1c(Cl)cccc1C(F)(F)F (racemic) [Example 41, 1-(3-((2-chloro-N-methyl-6-(trifluoro-methyl)phenyl-sulfonamido)-methyl)phenyl)-5-((trans)-2-(1-methyl-1H-1,2,3-triazol-4-yl)cyclo-propyl)-1H-pyrazole-4-carboxylic acid] | 1000 to 10000 nM | 1000 to 10000 nM
5 | COc1cc([N+](=O)[O-])ccc1S(=O)(=O)N(C)Cc1cccc(-n2ncc(C(=O)O)c2[C@@H]2C[C@H]2c2cn(C)nn2)c1 (racemic) [Example 44, 1-(3-((2-methoxy-N-methyl-4-nitrophenylsulfonamido)methyl)phenyl)-5-((trans)-2-(1-methyl-1H-1,2,3-triazol-4-yl)cyclopropyl)-1H-pyrazole-4-carboxylic acid] | 1000 to 10000 nM | 1000 to 10000 nM
6 | CCCCCCN(Cc1cccc(-n2ncc(C(=O)O)c2[C@@H]2C[C@H]2c2cn(C)nn2)c1)S(=O)(=O)c1ccccc1Oc1ccccc1 (racemic) [Example 49, 1-(3-((N-hexyl-2-phenoxyphenylsulfonamido)methyl)phenyl)-5-((trans)-2-(1-methyl-1H-1,2,3-triazol-4-yl)cyclopropyl)-1H-pyrazole-4-carboxylic acid] | 1000 to 10000 nM | 100 to 1000 nM
7 | CCCN(Cc1cccc(-n2ncc(C(=O)O)c2[C@@H]2C[C@H]2c2cn(C)nn2)c1)S(=O)(=O)c1ccccc1C (racemic) [Example 50, 5-((trans)-2-(1-methyl-1H-1,2,3-triazol-4-yl)cyclopropyl)-1-(3-((2-methyl-N-propylphenylsulfonamido)methyl)phenyl)-1H-pyrazole-4-carboxylic acid] | 1000 to 10000 nM | 10 to 100 nM
8 | COc1ccccc1S(=O)(=O)NCc1cccc(-n2ncc(C(=O)O)c2[C@@H]2C[C@H]2c2cn(C)nn2)c1 (racemic) [Example 52, 1-(3-((2-methoxyphenylsulfonamido)methyl)phenyl)-5-((trans)-2-(1-methyl-1H-1,2,3-triazol-4-yl)cyclopropyl)-1H-pyrazole-4-carboxylic acid] | 1000 to 10000 nM | 100 to 1000 nM

More lines, main results first:

Row | EC50 [2] | Structure (SMILES) | EC50 [1]
9 | 1000 to 10000 nM | Cc1ccccc1S(=O)(=O)N(C)Cc1cccc(-n2ncc(C(=O)O)c2[C@@H]2C[C@H]2c2cn(C)nn2)c1 (racemic) [Example 42, 1-(3-((N,2-dimethylphenylsulfonamido)methyl)phenyl)-5-((trans)-2-(1-methyl-1H-1,2,3-triazol-4-yl)cyclopropyl)-1H-pyrazole-4-carboxylic acid] | 1000 to 10000 nM
10 | 1000 to 10000 nM | COc1ccc(Br)cc1S(=O)(=O)N(C)Cc1cccc(-n2ncc(C(=O)O)c2[C@@H]2C[C@H]2c2cn(C)nn2)c1 (racemic) [Example 43, 1-(3-((5-bromo-2-methoxy-N-methylphenylsulfonamido)methyl)phenyl)-5-((trans)-2-(1-methyl-1H-1,2,3-triazol-4-yl)cyclopropyl)-1H-pyrazole-4-carboxylic acid] | 1000 to 10000 nM
11 | 1000 to 10000 nM | CCOc1ccccc1S(=O)(=O)N(C)Cc1cccc(-n2ncc(C(=O)O)c2[C@@H]2C[C@H]2c2cn(C)nn2)c1 (racemic) [Example 45, 1-(3-((2-ethoxy-N-methylphenylsulfonamido)methyl)phenyl)-5-((trans)-2-(1-methyl-1H-1,2,3-triazol-4-yl)cyclopropyl)-1H-pyrazole-4-carboxylic acid] | 1000 to 10000 nM
12 | 1000 to 10000 nM | CN(Cc1cccc(-n2ncc(C(=O)O)c2[C@@H]2C[C@H]2c2cn(C)nn2)c1)S(=O)(=O)c1ccccc1OC(F)(F)F (racemic) [Example 46, 5-((trans)-2-(1-methyl-1H-1,2,3-triazol-4-yl)cyclopropyl)-1-(3-((N-methyl-2-(trifluoromethoxy)phenylsulfonamido)methyl)phenyl)-1H-pyrazole-4-carboxylic acid] | 1000 to 10000 nM
13 | 1000 to 10000 nM | COc1ccccc1S(=O)(=O)N(C)Cc1cccc(-n2ncc(C(=O)O)c2[C@@H]2C[C@H]2c2cn(C)nn2)c1 (racemic) [Example 47, 1-(3-((2-methoxy-N-methylphenylsulfonamido)methyl)phenyl)-5-((trans)-2-(1-methyl-1H-1,2,3-triazol-4-yl)cyclopropyl)-1H-pyrazole-4-carboxylic acid] | 10 to 100 nM
14 | 1000 to 10000 nM | CN(Cc1cccc(-n2ncc(C(=O)O)c2[C@@H]2C[C@H]2c2cn(C)nn2)c1)S(=O)(=O)c1ccccc1 (racemic) [Example 48, 5-((trans)-2-(1-methyl-1H-1,2,3-triazol-4-yl)cyclopropyl)-1-(3-((N-methylphenylsulfonamido)methyl)phenyl)-1H-pyrazole-4-carboxylic acid] | 1000 to 10000 nM
15 | 1000 to 10000 nM | CN(Cc1cccc(-n2ncc(C(=O)O)c2[C@@H]2C[C@H]2c2cn(C)nn2)c1)S(=O)(=O)c1cccc2cccnc12 (racemic) [Example 51, 5-((trans)-2-(1-methyl-1H-1,2,3-triazol-4-yl)cyclopropyl)-1-(3-((N-methylquinoline-8-sulfonamido)methyl)phenyl)-1H-pyrazole-4-carboxylic acid] | 100 to 1000 nM
